Source: US6410790B1, “3-amin3-arylpropan-1-ol compounds, their preparation and use” (priority 1999, dated 2002)

How the values were obtained:
[1] = tested on: binding site 2 of the sodium channel; assay: BTX binding, sodium channel; conditions: 10 μM, percentage inhibition, [3H]-batrachotoxin A20 α-benzoate 10 nM, rat cerebral cortex synaptosomes
Experimental: Binding Investigations in the Sodium Channel
Binding Site 2 (BTX Binding)
The binding site 2 of the sodium channel is the so-called batrachotoxin (BTX) binding site. [^3H]-batrachlotoxin A20 α-benzoate (10 nM in the assay) was used as ligand. These ion channel particles (synaptosomes) were concentrated from rat cerebral cortex according to the procedure of Gray and Whittaker (E. G. Gray and V. P. Whittaker (1962) J. Anat. 76, 79-88). The radioactivity that is measured in the presence of veratridine (0.3 mM in the assay) is defined as non-specific binding. The material was incubated at 37° C. for 120 minutes. The assay conditions are carried out according to the protocol published by Pauwels, Leysen and Laduron (P. J. Pauwels, J. E. Leysen and P. M. Laduron (1986) Eur. J. Pharmacol. 124, 291-298).
(N=3, i.e. mean values±SEM from 3 independent series of experiments that were carried out in the form of triple parallel experiments).
(§1) For this purpose IC50 values are obtained, which can be converted to inhibitor constants (Ki) according to the “Cheng-Prusoff equation” (Y. C. Clieng and W. H. Prusoff (1973) Biochem. Pharmacol. 22, 3099-3108). The IC50 values were obtained by means of the computer program “Figure P” (version 6.0, Biosoft, Cambridge, England). Km values were calculated according to Lineweaver and Burk (H. Lineweaver and D. Burk (1934) J. Am. Chem. Soc. 56, 658-666). The “Ligand” computer program (version 4, Biosoft, England) was used to obtain Ken values.

[2] = tested on: benzothiazepine binding site of the L-type calcium channel; assay: Diltiazem binding, L calcium channel; parameters: species or system rat; conditions: 10 μM, percentage inhibition, [3H]-cis-(+)-diltiazem 5 nM, rat cerebral cortex membranes
Experimental: Binding Investigations in the L Calcium Channel
Benzothiazepine Binding Site (Diltiazem Binding)
The biological membrane material was isolated from the rat cerebral cortex. [^3H]-cis-(+)-diltiazem (5 nM in the assay) was used as ligand. The material was incubated for 20 minutes at 25° C. The radioactivity that is measured in the presence of (±)-diltiazem (10^−6 M in the assay) is defined as non-specific binding. After completion of incubation the non-bound fraction of the radioactive ligand is separated by means of a filtration process using Whatman Glasfiber GF/B membranes. The membranes are washed and the radioactivity is then measured using a β-counter. The method is based on the details published by Schoemaker and Langer (H. Schoemaker and S. Z. Langer (1985) Eur. J. Pharmacol. 111, 273-277).
as §1

[3] = tested on: phenylquinone-induced writhing reaction; assay: phenylquinone-induced writhing test in mice; type: in vivo; conditions: male NMRI mice, phenylquinone i.p. 10 minutes later; for inhibition in vivo at 10 mg/kg: Mus musculus, iv, 10 min, 10 mg/kg intravenously
Experimental: Analgesic Effect in the Writhing Test in Mice
The analgesic effect was investigated in the phenylquinone-induced writhing test in mice (as modified by I. C. Hendershot and J. Forsaith (1959) J. Pharmacol. Exp. Ther. 125, 237-240). Male NMRI mice weighing 25 to 30 g were used for the test. Groups of 10 animals each received by intraperitoineal application, for each substance dose, 0.3 ml/mouse of a 0.02% aqueous solution of phenylquinone (phenylbenzoquinone, Sigma Company, Deisenhofen; solution prepared with addition of 5% of ethanol and kept in a water bath at 45° C.) 10 minutes after intravenous administration of the test substances. The animals were placed individually in observation cages. The number of pain-induced stretching movements (so-called writhing reactions=straightening of the body together with stretching of the rear extremities) was measured by means of a push-button counter 5 to 20 minutes after administration of the phenylquinone. Animals that had received only physiological saline solution served as controls. All substances were tested in the standard dose of 10 mg/kg. The percentage inhibition (% inhibition) of the writhing reaction produced by a substance was calculated according to the following formula: [formula]

NA transporter = target: T1, NA transporter (Rattus norvegicus, UniProt Q63380); assay: synaptosomal noradrenaline uptake inhibition (NA uptake inhibition); type: biochemical; conditions: for inhibition at 1 µM: read-out: NA Uptake Inhibition at 1 μM, 1 μM in the assay, synaptosomes from rat hypothalamus; for NA Uptake Inhibition at 1 μM: 1 μM in the assay, synaptosomes from rat hypothalamus
T1 construct: synaptosomes are isolated fresh from rat brains; from tissue; host or cells: rat hypothalamus synaptosomes (P2 fraction)
Experimental: In order to carry out these in vitro studies, synaptosomes are isolated fresh from rat brains. In each case a so-called “P2” fraction is used, which is prepared according to the protocol of Gray and Whittaker (E. G. Gray and V. P. Whittaker (1962) J. Anat. 76, 79-88).
(in each case N=4, i.e. mean values±SEM from 4 independent series of experiments that were carried out in the form of triple parallel experiments).
as §1

T1 sequence (Q63380 1-617): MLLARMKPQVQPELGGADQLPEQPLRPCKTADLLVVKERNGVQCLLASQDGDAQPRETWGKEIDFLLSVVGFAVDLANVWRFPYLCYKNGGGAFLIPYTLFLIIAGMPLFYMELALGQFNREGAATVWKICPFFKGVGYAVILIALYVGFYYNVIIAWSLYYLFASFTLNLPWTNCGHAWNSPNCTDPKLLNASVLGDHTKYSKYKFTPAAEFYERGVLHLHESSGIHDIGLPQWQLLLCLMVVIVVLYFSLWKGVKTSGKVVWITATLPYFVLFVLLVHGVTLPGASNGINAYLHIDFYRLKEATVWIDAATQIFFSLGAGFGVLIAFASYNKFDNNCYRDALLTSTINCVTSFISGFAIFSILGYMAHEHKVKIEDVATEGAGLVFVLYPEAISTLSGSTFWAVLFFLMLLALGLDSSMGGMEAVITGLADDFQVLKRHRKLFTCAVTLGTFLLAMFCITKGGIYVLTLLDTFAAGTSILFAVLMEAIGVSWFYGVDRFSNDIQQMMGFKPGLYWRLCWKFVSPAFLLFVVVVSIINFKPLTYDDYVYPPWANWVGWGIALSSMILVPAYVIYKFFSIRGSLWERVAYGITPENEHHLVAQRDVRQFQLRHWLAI

| Compound | BTX Binding at 10 μM [1] [%] | Diltiazem Binding at 10 μM [2] [%] | inhibition in vivo at 10 mg/kg [3] [%] | inhibition at 1 µM (NA transporter) [%] | % Inhibition of the writhing reaction at 10 mg/kg intravenously [3] [%] | NA Uptake Inhibition at 1 μM (NA transporter) [%] | BTX Binding at 10 μM ([1]; hydrochloride) [%] | Diltiazem Binding at 10 μM ([2]; hydrochloride) [%] | % Inhibition of the writhing reaction at 10 mg/kg intravenously ([3]; hydrochloride, 10 mg/kg) [%] | NA Uptake Inhibition at 1 μM (NA transporter; hydrochloride) [%] |
| --- | --- | --- | --- | --- | --- | --- | --- | --- | --- | --- |
| CN(C)C(c1ccc(Cl)c(Cl)c1)C1CCCCC1(O)Cc1ccc(C(C)(C)C)cc1.Cl (centres unmarked) [Example 46, 1-(4-tert.-butylbenzyl)-2-[(3,4-dichlorophenyl)dimethylaminomethyl]cyclohexanol, hydrochloride] | 96 | 93 | 68 | 35 |  |  |  |  |  |  |
| CN(C)C(c1ccc2ccccc2c1)C1CCCCC1(O)Cc1ccccc1.Cl (centres unmarked) [Example 76, 1-benzyl-2-(dimethylaminonaphthalene-2-ylmethyl)cyclohexanol, hydrochloride] | 90 | 73 | 60 | 80 |  |  |  |  |  |  |
| CN(C)C(c1c(F)c(F)c(F)c(F)c1F)C1CCCCC1(O)Cc1ccccc1.Cl (centres unmarked) [Example 77, 1-benzyl-2-(dimethylaminopentafluorophenylmethyl)cyclohexanol, hydrochloride] | 56 | 27 | 54 | 27 |  |  |  |  |  |  |
| CCC(O)(Cc1ccc(C(C)(C)C)cc1)C(C)C(c1ccccc1)N(C)C.Cl (centres unmarked) [Example 80] | 100 | 100 |  |  | 61 | 18 |  |  |  |  |
| CN(C)C(c1cccc(Cl)c1)C1CCCCC1(O)Cc1ccccc1.Cl (centres unmarked) [Example 44, 1-benzyl-2-[(3-chlorophenyl)dimethylaminomethyl]cyclohexanol, hydrochloride] | 95 | 71 | 100 | 99 |  |  |  |  |  |  |
| CN(C)C(c1ccc(Cl)c(Cl)c1)C1CCCCC1(O)Cc1ccccc1.Cl (centres unmarked) [Example 39, 1-benzyl-2-[(3,4-dichlorophenyl)dimethylaminomethyl]cyclohexanol, hydrochloride] | 97 | 76 | 94 | 61 |  |  |  |  |  |  |
| COc1cccc(CC2(O)CCCCC2C(c2ccccc2)N(C)C)c1.Cl (centres unmarked) [Example 13, 2-(dimethylaminophenylmethyl)-1-(3-methoxybenzyl)cyclohexanol, hydrochloride] | 94 | 88 | 100 | 95 |  |  |  |  |  |  |
| CN(C)C(c1ccccc1)C1CCCCC1(O)Cc1cccc(F)c1F.Cl (centres unmarked) [Example 57, 1-(2,3-difluorobenzyl)-2-(dimethylaminophenylmethyl)cyclohexanol, hydrochloride] | 97 | 83 | 84 | 99 |  |  |  |  |  |  |
| COc1cccc(C(C2CCCCC2(O)c2cccc(Cl)c2)N(C)C)c1.Cl (centres unmarked) [Example 9] | 89 | 91 |  |  | 73 | 62 |  |  |  |  |
| CN(C)C(c1ccccc1)C1CCCCC1(O)Cc1ccc(F)c(F)c1.Cl (centres unmarked) [Example 55, 1-(3,4-difluorobenzyl)-2-(dimethylaminophenylmethyl)cyclohexanol, hydrochloride] | 94 | 76 | 92 | 38 |  |  |  |  |  |  |
| CN(C)C(c1cccs1)C1CCCCC1(O)Cc1ccc(C(C)(C)C)cc1.Cl (centres unmarked) [Example 82, 1-(4-tert.-butylbenzyl)-2-[dimethylaminothiophen-2-ylmethyl]cyclohexanol, hydrochloride] | 98 | 85 | 100 | 0 |  |  |  |  |  |  |
| CN(C)C(c1cccc(Oc2ccccc2)c1)C1CCCCC1(O)Cc1ccc(C(C)(C)C)cc1.Cl (centres unmarked) [Example 64, 1-(4-tert.-butylbenzyl)-2-[dimethylamino-(3-phenoxyphenyl)methyl]cyclohexanol, hydrochloride] | 100 | 87 | 88 | 36 |  |  |  |  |  |  |
| CN(C)C(c1ccccc1Cl)C1CCCCC1(O)c1ccc2ccccc2c1.Cl (centres unmarked) [Example 38, 2-[(2-chlorophenyl)dimethylaminomethyl]-1-naphthalene-2-ylcyclohexanol, hydrochloride] | 97 | 67 | 85 | 17 |  |  |  |  |  |  |
| COc1cccc(C(C2CCCCC2(O)c2ccc3c(c2)OCO3)N(C)C)c1.Cl (centres unmarked) [Example 31, 1-benzo[1,3]dioxol-5-yl-2-[dimethylamino-(3-methoxyphenyl)methyl]cyclohexanol, hydrochloride] | 85 | 90 | 76 | 43 |  |  |  |  |  |  |
| Cc1ccccc1C(C1CCCCC1(O)c1ccccc1)N(C)C.Cl (centres unmarked) [Example 81, 2-(dimethylamino-o-tolylmethyl)-1-phenylcyclohexanol, hydrochloride] |  |  |  |  |  |  | 99 | 83 | 75 | 66 |
| CN(C)C(c1cccc(Cl)c1)C1CCCCC1(O)c1ccccc1.Cl (centres unmarked) [Example 42] | 89 | 50 |  |  | 76 | 82 |  |  |  |  |
| CN(C)CC1CCCCC1(O)c1ccc(Cl)cc1Cl.Cl (centres unmarked) [Example 43, 1-(2,4-dichlorophenyl)-2-(3-dimethylaminomethyl)-1-cyclohexanol, hydrochloride] | 94 | 73 |  |  | 80 | 14 |  |  |  |  |
| CN(C)C(c1ccccc1)C1CCCCC1(O)Cc1c(F)cccc1Cl.Cl (centres unmarked) [Example 56, 1-(2-chloro-6-fluorobenzyl)-2-(dimethylaminophenylmethyl)cyclohexanol, hydrochloride] | 99 | 88 | 94 | 92 |  |  |  |  |  |  |
| CN(C)C(c1ccccc1)C1CCCCC1(O)Cc1ccccc1F.Cl (centres unmarked) [Example 24, 2-(dimethylaminophenylmethyl)-1-(2-fluorobenzyl)cyclohexanol, hydrochloride] | 92 | 93 | 97 | 98 |  |  |  |  |  |  |
| COc1cccc(C(c2ccccc2)(C2CCCCC2(O)Cc2ccccc2)N(C)C)c1.Cl (centres unmarked) [Example 35, 1-benzyl-2-[dimethylaminophenyl-(3-methoxyphenyl)methyl]cyclohexanol, hydrochloride] | 92 | 87 | 81 | 100 |  |  |  |  |  |  |
